Measurements taken from patent US20160332971A1, “ARYLQUINOLINE, ARYLQUINOLONE AND ARYLTHIOQUINOLONE DERIVATIVES AND USE THEREOF TO TREAT CANCER” (UNIVERSITY OF KENTUCKY RESEARCH FOUNDATION, priority 2015, published 2016).
Read-outs that look alike come from different tables or passages of the source.

How the values were obtained:
[1] = tested on: Par-4 secretion from mouse fibroblasts; assay: Par-4 secretion into conditioned medium, quantitative Western blot normalised to CollA1; format: cell-based; conditions: for Par-4 secretory activity (in words): SAR discussion; for Relative Levels of Par-4 Secretion by Arylquins Administered at 500 nM / fold induction at 0.5 µM: 24 h; for Relative Levels of Par-4 Secretion by Arylquins Administered at 500 nM: mouse fibroblasts, CM; for fold induction at 0.5 µM: Mus musculus, Fibroblast, read-out: Ratio of Par-4 Secretion by Arylquin 1 Relative to Vehicle
Experimental: Calibration curve developed using fixed amounts (0.05-5 ng) of recombinant TRX-Par-4. […] Therefore the concentration was 0.82 ng/40 μL or 540 pM, In the same fashion, calculation for Par-4 concentration using vehicle (v) was 280 pM.
Biological activity of 3-Arylquinolines. […] After 24 h exposure, the CM and lysates were subjected to quantitative Western blot analysis for Par-4 and collagen (CollA1).
Co-immunoprecipitation and Western blot analysis. Protein extracted from cell lysates was filtered, pre-cleared with 25 μL (bed volume) of protein G-Sepharose beads and immunoprecipitated with 1 μg of respective antibodies. The eluted proteins were resolved by SDS-PAGE, and subjected to Western blot analysis as described previously. Bensch, et al. Nature 1968, 218(5147):1176-1177.
Statistical analyses. All experiments were performed in triplicate to verify the reproducibility of the findings. […] Statistical analyses were carried out with Statistical Analysis System software (SAS Institute, Cary, N.C.) and P values were calculated using the Student t test.

| Compound | melting point [°C] | Par-4 secretory activity (in words) ([1]; 500 nM) | Relative Levels of Par-4 Secretion by Arylquins Administered at 500 nM ([1]; Table 2) | Relative Levels of Par-4 Secretion by Arylquins Administered at 500 nM ([1]; Table 1) | further results |
| --- | --- | --- | --- | --- | --- |
| Nc1nc2cc(C(=O)O)ccc2cc1-c1ccccc1F [Arylquin 15h, 2-Amino-3-(2-fluorophenyl)quinoline-7-carboxylic add] | – | reduced activity | <50 | – | – |
| CN(C)c1ccc2cc(-c3cc(F)ccc3F)c(N)nc2c1 [Arylquin 1k, 3-(2,5-Difluorophenyl)-N^7,N^7-dimethylquinoline-2,7-diamine] | – | equipotent to the original arylquinoline 1a | – | 86.2 ± 7.5 | fold induction at 0.5 µM ([1]; 500 nM, Table 1): 2.9 |
| 3-(2,5-Difluorophenyl)-N^7,N^7-dimethylquinoline-2,7-diamine [Arylquin 1l] | – | – | – | 64.9 ± 13.1 | – |
| CCOC(=O)c1cn2c(n1)c(-c1ccccc1F)cc1ccc(N(C)C)cc12 [Arylquin 8b] | – | little Par-4 secretory activity | – | – | – |
| CN(C)c1ccc2cc3c(nc(N)c4ccccc43)nc2c1 [Arylquin 6, N^9,N^9-Dimethyldibenzo[b,f][1,8]naphthyridine-5,9-diamine] | > 250 | biologically inactive | – | – | – |
| CN(C)c1ccc2cc(-c3ccccc3F)c(Cl)nc2c1 [Arylquin 12, 2-Chloro-3-(2-fluorophenyl)-N,N-dimethylquinolin-7-amine] | – | activity comparable to but not exceeding that of arylquinoline 1a | 104.5 ± 26.9 | – | fold induction at 0.5 µM ([1]; 500 nM, Table 2): 3.5 |
| CN(C)c1ccc2cc(-c3ccccc3F)c(N)nc2c1 [Arylquin 1a] | – | superior in potency | – | – | increase in Par-4 concentrations in the CM from basal levels ([1]; 500 nM, vs vehicle alone): two-fold increase; Par-4 concentration in the CM ([1]; 500 nM, calibration with recombinant TRX-Par-4 (FIG. 3), vehicle 280 pM): 540 pM |
| CSc1nc2cc(N(C)C)ccc2cc1-c1ccccc1F [Arylquin 11, 3-(2-Fluorophenyl)-N,N-dimethyl-2-(methylthio)quinolin-7-amine] | – | diminished activity to varying degrees | 75.4 ± 7.0 | – | fold induction at 0.5 µM ([1]; 500 nM, Table 2): 2.5 |
| CN(C)c1ccc2cc(-c3cccc(Cl)c3)c(N)nc2c1 [Arylquin 1e, 3-(3-Chlorophenyl)-N^7,N^7-dimethylquinoline-2,7-diamine] | 144 to 145 | no improvement | – | 78.3 ± 15.3 | fold induction at 0.5 µM ([1]; 500 nM, Table 1): 2.6 |
| CN(C)c1ccc2cc(-c3ccccc3Cl)c(N)nc2c1 [Arylquin 1b, 3-(2-Chlorophenyl)-N^7,N^7-dimethylquinoline-2,7-diamine] | 147 to 148 | comparable in activity | – | – | – |
| CN(C)c1ccc2cc(-c3ccccc3F)c(=O)[nH]c2c1 [Arylquin 9] | – | diminished Par-4 secretory activity relative to arylquinoline 1a | 33.2 ± 0.9 | – | Ratio of Par-4 Secretion by Arylquin 1 Relative to Vehicle ([1]; 500 nM, Table 2): 1.1 |
| CN1CCN(c2nc3cc(N(C)C)ccc3cc2-c2ccccc2F)CC1 [Arylquin 13b, 3-(2-Fluorophenyl)-N,N-dimethyl-2-(4-methylpiperazin-1-yl)quinolin-7-amine] | – | diminished activity to varying degrees | 65.6 ± 3.6 | – | fold induction at 0.5 µM ([1]; 500 nM, Table 2): 2.2 |
| CN(C)c1ccc2cc(-c3cccc(F)c3F)c(N)nc2c1 [Arylquin 1h, 3-(2,3-Difluorophenyl)-N^7,N^7-dimethylquinoline-2,7-diamine] | – | equipotent to the original arylquinoline 1a | – | 93.2 ± 10.6 | fold induction at 0.5 µM ([1]; 500 nM, Table 1): 3.1 |
| CN(C)c1ccc2cc(-c3c(F)cccc3F)c(N)nc2c1 [Arylquin 1m, 3-(2,6-Difluorophenyl)-N^7,N^7-dimethylquinoline-2,7-diamine] | 148 to 150 | did not lead to improved activity | – | 44.6 ± 4.6 | fold induction at 0.5 µM ([1]; 500 nM, Table 1): 1.5 |
| 3-(2,3-Difluorophenyl)-N^7,N^7-dimethylquinoline-2,7-diamine [Arylquin 1i] | – | comparable to 1a, 1b and 1h | – | 88.4 ± 1.3 | – |

More lines, main results first:

| melting point [°C] | Compound | Par-4 secretory activity (in words) ([1]; 500 nM) | Relative Levels of Par-4 Secretion by Arylquins Administered at 500 nM ([1]; Table 2) | Relative Levels of Par-4 Secretion by Arylquins Administered at 500 nM ([1]; Table 1) | further results |
| --- | --- | --- | --- | --- | --- |
| > 250 | CN(C)c1ccc2cc3c(nc2c1)[nH]c(=O)c1ccccc13 [Arylquin 7, 9-(Dimethylamino)dibenzo[b,f][1,8]naphthyridin-5(6H)-one] | biologically inactive | – | – | – |
| 114 to 116 | COc1ccc2cc(-c3ccccc3F)c(N)nc2c1 [Arylquin 15g, 3-(2-Fluorophenyl)-7-methoxyquinolin-2-amine] | reduced activity | <50 | – | – |
| 142 to 143 | Nc1nc2cccc(F)c2cc1-c1ccccc1F [Arylquin 15b, 5-Fluoro-3-(2-fluorophenyl)quinolin-2-amine] | equipotent to 15a | 83.4 | – | fold induction at 0.5 µM ([1]; 500 nM, Table 2): 2.8 |
| 178 to 180 | Nc1nc2cc(Cl)ccc2cc1-c1ccccc1F [Arylquin 15f, 7-Chloro-3-(2-fluorophenyl)quinolin-2-amine] | reduced activity | <50 | – | – |
| 163 to 164 | CN(C)c1ccc2cc(-c3ccc(F)c(F)c3)c(N)nc2c1 [Arylquin 1n, 3-(3,4-Difluorophenyl)-N^7,N^7-dimethylquinoline-2,7-diamine] | diminished activity relative to 1a | – | 58.4 ± 14.1 | fold induction at 0.5 µM ([1]; 500 nM, Table 1): 2 |
| 209 to 210 | Nc1nc2cccc(Br)c2cc1-c1ccccc1F [Arylquin 15d, 5-Bromo-3-(2-fluorophenyl)quinolin-2-amine] | lower Par-4 secretory activity | 44.6 | – | fold induction at 0.5 µM ([1]; 500 nM, Table 2): 1.5 |
| 160 to 162 | CN(C)c1ccc2cc(-c3cc(F)cc(F)c3)c(N)nc2c1 [Arylquin 1o, 3-(3,5-Difluorophenyl)-N^7,N^7-dimethylquinoline-2,7-diamine] | diminished activity relative to 1a | – | 47.4 ± 16.8 | – |
| 138 to 139 | Nc1nc2ccc(Cl)cc2cc1-c1ccccc1F [Arylquin 15e, 6-Chloro-3-(2-fluorophenyl)quinolin-2-amine] | equipotent to 15a | 81.9 ± 11.2 | – | fold induction at 0.5 µM ([1]; 500 nM, Table 2): 2.8 |
| 174 to 175 | CN(C)c1ccc2cc(-c3ccc(F)cc3F)c(N)nc2c1 [Arylquin 1j, 3-(2,4-Difluorophenyl)-N^7,N^7-dimethylquinoline-2,7-diamine] | equipotent to the original arylquinoline 1a | – | 80.8 ± 3.0 | fold induction at 0.5 µM ([1]; 500 nM, Table 1): 2.7 |
| 159 to 160 | CN(C)c1ccc2cc(-c3ccccc3Br)c(N)nc2c1 [Arylquin 1c, 3-(2-Bromophenyl)-N^7,N^7-dimethylquinoline-2,7-diamine] | diminished activity | – | 33.6 ± 14.8 | – |
| 169 to 170 | CN(C)c1ccc2cc(-c3ccc(Cl)cc3)c(N)nc2c1 [Arylquin 1g, 3-(4-Chlorophenyl)-N^7,N^7-dimethylquinoline-2,7-diamine] | no improvement | – | – | – |
| 194 to 196 | Nc1nc2cccc(Cl)c2cc1-c1ccccc1F [Arylquin 15c, 5-Chloro-3-(2-fluorophenyl)quinolin-2-amine] | lower Par-4 secretory activity | 63.2 ± 20.5 | – | fold induction at 0.5 µM ([1]; 500 nM, Table 2): 2.1 |
